Source: ChEMBL document CHEMBL4483862, “Open-source discovery of chemical leads for next-generation chemoprotective antimalarials” (2018)

System: Plasmodium berghei
Assay: Luciferase/luciferin-expressing antifolate-resistant parasites were used to infect a culture of HepG2 cells that were pre-incubated with compounds. Infected hepatocytes emit light due to the luciferase reaction. Assay results are presented as the percent inhibition of light emission compared to control. […]
Format: functional
Conditions: sporozoite; for IC90: read-out: LUCIFERASE INFECTION ASSAY - IC90
[1] = read-out: LUCIFERASE INFECTION ASSAY - IC50

Compound | IC90 | IC50 [1] | further results
O=C(Cn1cnc2c(cnn2-c2ccccc2)c1=O)c1c[nH]c2ccccc12 | > 10 µM |  | IC50 (HEPG2TOX_HILL_SLOPE 3.41, HEPG2TOX_R_SQUARED 0.825, PBLUC_HILL_SLOPE 1.56, PBLUC_R_SQUARED 0.738, read-out: LUCIFERASE INFECTION ASSAY - IC50): 2.81 µM
CC1C/C(=C/c2ccc(Cl)cc2)C2=NN(C(=O)c3ccc4ncccc4c3)C(c3ccc(Cl)cc3)C2C1 (stereo not given) | 6.04 µM |  | IC50 (FFLUC_HILL_SLOPE 1.77, FFLUC_R_SQUARED 0.609, HEPG2TOX_HILL_SLOPE 4.89, HEPG2TOX_R_SQUARED 0.557, PBLUC_HILL_SLOPE 71.4, PBLUC_R_SQUARED 0.509, read-out: LUCIFERASE INFECTION ASSAY - IC50): 5.86 µM
c1ccc(-c2cc3c(Oc4ccc(-n5ccnc5)cc4)ncnc3s2)cc1 | > 10 µM |  | IC50 (PBLUC_HILL_SLOPE 1.81, PBLUC_R_SQUARED 0.315, read-out: LUCIFERASE INFECTION ASSAY - IC50): 6.93 µM
COc1cc(C(=O)Nc2cccc(-n3cnnn3)c2)cc(OC)c1OC | > 9.29 µM |  | IC50 (PBLUC_HILL_SLOPE 1.51, PBLUC_R_SQUARED 0.135, read-out: LUCIFERASE INFECTION ASSAY - IC50): 5.06 µM
COc1ccc(COC(=O)Cc2c(C)[nH]c(-c3ccccn3)nc2=O)cc1OC | 8.13 µM |  | IC50 (PBLUC_HILL_SLOPE 4.54, PBLUC_R_SQUARED 0.664, read-out: LUCIFERASE INFECTION ASSAY - IC50): 5.01 µM
Nc1nc(SCc2cc(=O)n3c(n2)sc2ccccc23)nc2sccc12 | > 10 µM | > 10 µM | 
CCNC(=O)c1cc2c(s1)CCC(C(C)(C)C)C2 (stereo not given) | > 10 µM |  | IC50 (PBLUC_HILL_SLOPE 3.05, PBLUC_R_SQUARED 0.267, read-out: LUCIFERASE INFECTION ASSAY - IC50): 6.74 µM
CC1(C)CC2CC(C)(CN2C(=O)CSc2nnc(-c3cc(-c4cccs4)nc4ccccc34)o2)C1 (stereo not given) | > 10 µM |  | IC50 (PBLUC_HILL_SLOPE 1.06, PBLUC_R_SQUARED 0.333, read-out: LUCIFERASE INFECTION ASSAY - IC50): > 10 µM
C=CCCC(=O)Nc1ccc(Br)cn1 | > 12.9 µM |  | IC50 (HEPG2TOX_HILL_SLOPE 2.37, HEPG2TOX_R_SQUARED 0.964, PBLUC_HILL_SLOPE 2.08, PBLUC_R_SQUARED 0.0582, read-out: LUCIFERASE INFECTION ASSAY - IC50): 5.2 µM
Cc1cc(C(=O)NC(C)Cc2ccc(Br)cc2)on1 (stereo not given) | > 10 µM | > 10 µM | 
COc1ccccc1-c1ccc2ncc(-c3ccc(CO)cc3)n2n1 | > 10 µM | 7.5 µM | 
CCN1C(=O)N(Cc2cccc(OC)c2)C(=O)C12CCN(Cc1ccc3c(c1)Cc1ccccc1-3)CC2 | > 6.66 µM |  | IC50 (HEPG2TOX_HILL_SLOPE 11.9, HEPG2TOX_R_SQUARED 0.897, PBLUC_HILL_SLOPE 2.37, PBLUC_R_SQUARED 0.639, read-out: LUCIFERASE INFECTION ASSAY - IC50): 3.29 µM
CCOc1cc(/C=C/c2nc3cc(C)c(C)cc3s2)ccc1O | > 10 µM |  | IC50 (HEPG2TOX_HILL_SLOPE 6.63, HEPG2TOX_R_SQUARED 0.787, PBLUC_HILL_SLOPE 3.12, PBLUC_R_SQUARED 0.499, read-out: LUCIFERASE INFECTION ASSAY - IC50): 6.52 µM
COC(=O)c1cccc(S(=O)(=O)Oc2cc3ccccc3cc2C(=O)Nc2cc(C)ccc2OC)c1 | > 10 µM |  | IC50 (FFLUC_HILL_SLOPE 26.2, FFLUC_R_SQUARED 0.533, PBLUC_HILL_SLOPE 4.23, PBLUC_R_SQUARED 0.622, read-out: LUCIFERASE INFECTION ASSAY - IC50): 8.38 µM
CCn1ncc2c(C(=O)Nc3ccc(-c4cn5ccsc5n4)cc3)cc(-c3cccs3)nc21 | > 10 µM |  | IC50 (PBLUC_HILL_SLOPE 2.78, PBLUC_R_SQUARED 0.317, read-out: LUCIFERASE INFECTION ASSAY - IC50): 7.98 µM
COc1ccc(N(CCC23CC4CC(CC(C4)C2)C3)S(=O)(=O)c2ccccc2)cc1 | > 10 µM | > 10 µM | 
CC1(C(=O)Nc2ccncc2)CCN1Cc1ccc2ccccc2c1 (stereo not given) | 7.13 µM |  | IC50 (HEPG2TOX_HILL_SLOPE 0.704, HEPG2TOX_R_SQUARED 0.958, PBLUC_HILL_SLOPE 1.6, PBLUC_R_SQUARED 0.488, read-out: LUCIFERASE INFECTION ASSAY - IC50): 1.8 µM
CN(Cc1ccc(OCc2ccc(Cl)cc2)cc1)C(=O)c1cnn(C)c1 | > 10 µM | > 10 µM | 
O=C(CSc1nnnn1CC1CCCO1)NCc1ccc2c(c1)OCO2 (stereo not given) | > 10 µM | > 10 µM | 
NC(c1ccccc1)c1csc(NC(=O)NC(c2ccccc2)c2ccccc2)n1 (stereo not given) | > 7.96 µM | > 7.96 µM | 

Compound | IC90 | IC50 [1] | further results
Cc1ccc(S(=O)(=O)N2CCN(CC(=O)N3N=C4/C(=C/c5cccs5)CCCC4C3c3cccs3)CC2)cc1 (stereo not given) | 4.41 µM |  | IC50 (HEPG2TOX_HILL_SLOPE 6.4, HEPG2TOX_R_SQUARED 0.688, PBLUC_HILL_SLOPE 11.3, PBLUC_R_SQUARED 0.553, read-out: LUCIFERASE INFECTION ASSAY - IC50): 3.64 µM
Cc1ccc(-c2cnc3ccc(NC4CCOCC4)nn23)cc1C | 4.53 µM |  | IC50 (HEPG2TOX_HILL_SLOPE 2.16, HEPG2TOX_R_SQUARED 0.752, PBLUC_HILL_SLOPE 1.94, PBLUC_R_SQUARED 0.563, read-out: LUCIFERASE INFECTION ASSAY - IC50): 1.46 µM
Cc1ccc(NC(=O)Nc2cnn(-c3ccc([N+](=O)[O-])cc3)c2C(F)(F)F)cc1F | 3.46 µM |  | IC50 (FFLUC_HILL_SLOPE 2.79, FFLUC_R_SQUARED 0.315, HEPG2TOX_HILL_SLOPE 0.0932, HEPG2TOX_R_SQUARED 0.068, PBLUC_HILL_SLOPE 11.4, PBLUC_R_SQUARED 0.0999, read-out: LUCIFERASE INFECTION ASSAY - IC50): 2.85 µM
c1ccc(CNc2nn3c(-c4ccccc4)cnc3s2)cc1 | 4.14 µM |  | IC50 (PBLUC_HILL_SLOPE 12.3, PBLUC_R_SQUARED 0.487, read-out: LUCIFERASE INFECTION ASSAY - IC50): 3.47 µM
CCC1CCCCN1C(=O)CSC(=Nc1ccccc1F)C(C#N)c1nc2ccccc2s1 (stereo not given) | 9.73 µM |  | IC50 (HEPG2TOX_HILL_SLOPE 76.7, HEPG2TOX_R_SQUARED 0.475, PBLUC_HILL_SLOPE 22.7, PBLUC_R_SQUARED 0.0851, read-out: LUCIFERASE INFECTION ASSAY - IC50): 8.83 µM
O=C(CC(=O)Nc1ccc(Cl)cn1)Nc1ccc(Cl)c(Cl)c1 | 8.05 µM |  | IC50 (HEPG2TOX_HILL_SLOPE 5.65, HEPG2TOX_R_SQUARED 0.964, PBLUC_HILL_SLOPE 4.27, PBLUC_R_SQUARED 0.168, read-out: LUCIFERASE INFECTION ASSAY - IC50): 4.81 µM
O=C1C=CC(=O)N1c1cc(Cl)cc(Cl)c1 | > 13.6 µM |  | IC50 (FFLUC_HILL_SLOPE 11.6, FFLUC_R_SQUARED 0.448, PBLUC_HILL_SLOPE 9.84, PBLUC_R_SQUARED 0.0939, read-out: LUCIFERASE INFECTION ASSAY - IC50): > 13.6 µM
COc1ccc(-c2cc([N+](=O)[O-])ccc2OC(C)C(=O)N2CCC(C)CC2)cc1 (stereo not given) | 4.24 µM |  | IC50 (PBLUC_HILL_SLOPE 7.12, PBLUC_R_SQUARED 0.553, read-out: LUCIFERASE INFECTION ASSAY - IC50): 3.11 µM
CC(C)(C)NC(=S)N/N=C/c1cc(Cl)cc(Cl)c1O | 6.66 µM |  | IC50 (HEPG2TOX_HILL_SLOPE 1.14, HEPG2TOX_R_SQUARED 0.984, PBLUC_HILL_SLOPE 2.14, PBLUC_R_SQUARED 0.291, read-out: LUCIFERASE INFECTION ASSAY - IC50): 2.39 µM
COc1ccc(-c2nc(NC(=O)c3ccc4nc[nH]c4c3)sc2C)cc1 | > 10 µM | > 10 µM | 
Cc1ccc(-n2c(SCC(=O)c3ccc4c(c3)OCO4)nnc2N2CCCC2)cc1 | > 10 µM | > 10 µM | 
CCN(c1ccccc1)S(=O)(=O)c1ccc(Sc2ccc(C)cc2C)nc1 | > 10 µM |  | IC50 (HEPG2TOX_HILL_SLOPE 0.198, HEPG2TOX_R_SQUARED 0.716, PBLUC_HILL_SLOPE 11.9, PBLUC_R_SQUARED 0.0318, read-out: LUCIFERASE INFECTION ASSAY - IC50): 9.38 µM
CCN(CC)c1ccc(N=C2C=CC(=O)c3ccccc32)c(C)c1 | 4.59 µM |  | IC50 (FFLUC_HILL_SLOPE 15.8, FFLUC_R_SQUARED 0.584, HEPG2TOX_HILL_SLOPE 2.04, HEPG2TOX_R_SQUARED 0.961, PBLUC_HILL_SLOPE 2.09, PBLUC_R_SQUARED 0.781, read-out: LUCIFERASE INFECTION ASSAY - IC50): 1.61 µM
Cc1ccc(-c2nnc(NC(=O)c3cccc(S(=O)(=O)N4CCc5ccccc54)c3)[nH]2)cc1 | > 10 µM | 8.49 µM | 
CC(=O)Nc1cccc(-c2ccnc3c2CC(C(=O)NCc2ccco2)O3)c1 (stereo not given) | 6.23 µM |  | IC50 (FFLUC_HILL_SLOPE 0.324, FFLUC_R_SQUARED 0.726, HEPG2TOX_HILL_SLOPE 3.12, HEPG2TOX_R_SQUARED 0.86, PBLUC_HILL_SLOPE 2.84, PBLUC_R_SQUARED 0.407, read-out: LUCIFERASE INFECTION ASSAY - IC50): 2.87 µM
O=C(c1cc2c(=O)n3ccccc3nc2s1)N(c1ccccn1)C1CCCCC1 | > 10 µM |  | IC50 (PBLUC_HILL_SLOPE 9.6, PBLUC_R_SQUARED 0.179, read-out: LUCIFERASE INFECTION ASSAY - IC50): 9.45 µM
O=C(NC1CCS(=O)(=O)c2ccccc21)C1CCN(c2ncc(C(F)(F)F)cc2Cl)CC1 (stereo not given) | > 10 µM | > 10 µM | 
CC1Cc2cc(C3=NNC(=Nc4ccccc4[N+](=O)[O-])SC3)ccc2N1S(C)(=O)=O (stereo not given) | > 10 µM | 5.32 µM | 
O=C(NC(=S)Nc1ccc(F)cc1)c1cnn2c(C(F)(F)F)cc(C(F)(F)F)nc12 | > 7.31 µM | > 7.31 µM | 
Cc1cc(C)nc(NNC(=S)NC(=O)C23CC4CC(CC(C4)C2)C3)n1 | 3.62 µM |  | IC50 (HEPG2TOX_HILL_SLOPE 2.34, HEPG2TOX_R_SQUARED 0.811, PBLUC_HILL_SLOPE 12, PBLUC_R_SQUARED 0.36, read-out: LUCIFERASE INFECTION ASSAY - IC50): 3.01 µM
